The source of these data is PubChem BioAssay (NCI).

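Compound exposure: 48 hours, 5 concentrations, 96-well plates. TGI: total growth inhibition.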 Where only a bound is given, the exact number is not on record here.

Test systems include 786-0 renal; HT29 colon; LOX IMVI melanoma; M14 melanoma; NCI/ADR-RES ovarian; OVCAR-4 ovarian; RXF 393 renal; SF-539 CNS; SK-MEL-2 melanoma; T-47D breast.
What all share (assay): NCI anticancer screen, dose series, 48 h

On to `Cc1ccc(C(=O)N/N=C2/C(=O)c3c4ccccc4cc4cccc2c34)cc1`, for which the TGI in the assay on 786-0 renal was 74.1 µM; in the assay with HT29 colon it was 97.5 µM; in the assay with LOX IMVI melanoma it was over 100 µM; with M14 melanoma, over 100 µM; in the assay on NCI/ADR-RES ovarian, over 91.2 µM; in the assay on OVCAR-4 ovarian, over 100 µM. In addition, the TGI is over 69 µM with RXF 393 renal, over 92.9 µM with SF-539 CNS, over 100 µM in the assay on SK-MEL-2 melanoma and 83.2 µM with T-47D breast.

Take `O=C(C1OC1c1cccc([N+](=O)[O-])c1)C12CC3CC(CC(C3)C1)C2` (stereo not given): the TGI stood at 7.1 µM in the assay with 786-0 renal; 13 µM in the assay with HT29 colon; 3.84 µM in the assay on LOX IMVI melanoma; 22.8 µM in the assay on M14 melanoma; 9.74 µM in the assay with NCI/ADR-RES ovarian; 15.4 µM in the assay on OVCAR-4 ovarian. The TGI with RXF 393 renal worked out at 16.8 µM; in the assay with SF-539 CNS, 22.6 µM; in the assay on SK-MEL-2 melanoma, 28.6 µM; in the assay on T-47D breast, 26.3 µM.

For `Cc1cc(C)nc(NS(=O)(=O)c2ccc(NC(=O)c3cc([N+](=O)[O-])cc([N+](=O)[O-])c3)cc2)n1`, the TGI in the assay on 786-0 renal, with HT29 colon, in the assay on LOX IMVI melanoma, in the assay with M14 melanoma, with NCI/ADR-RES ovarian and in the assay on OVCAR-4 ovarian was over 100 µM throughout. The TGI with RXF 393 renal, with SF-539 CNS, in the assay on SK-MEL-2 melanoma and with T-47D breast was over 100 µM in each case.

Take `O=c1[nH]nc(-c2ccc(F)cc2)cc1-c1ccccc1`: the TGI with 786-0 renal, in the assay with HT29 colon, in the assay with LOX IMVI melanoma, with M14 melanoma, in the assay with NCI/ADR-RES ovarian and with OVCAR-4 ovarian was over 100 µM in each case. Moreover, the TGI with RXF 393 renal, with SF-539 CNS, in the assay with SK-MEL-2 melanoma and with T-47D breast was over 100 µM each time.

As to `Cc1cn(C2OC(CO)C(O)C2F)c(=O)[nH]c1=O` (stereo not given), the TGI with 786-0 renal, in the assay with HT29 colon, in the assay with LOX IMVI melanoma, in the assay on M14 melanoma, with NCI/ADR-RES ovarian and in the assay with OVCAR-4 ovarian was over 100 µM each time. Besides, the TGI in the assay with RXF 393 renal, in the assay on SF-539 CNS, in the assay on SK-MEL-2 melanoma and with T-47D breast was over 100 µM in each case.

As for `N#Cc1c(-c2ccccc2)cc(Nc2ccc(Cl)cc2)n2c1nc1ccccc12`, the TGI is over 39.7 µM in the assay on 786-0 renal; 11.4 µM in the assay with HT29 colon; over 100 µM in the assay on LOX IMVI melanoma; over 100 µM in the assay on M14 melanoma; 15.7 µM with NCI/ADR-RES ovarian; over 100 µM in the assay with OVCAR-4 ovarian. Further, the TGI was over 100 µM in the assay with RXF 393 renal, over 49.5 µM in the assay with SF-539 CNS, over 83.6 µM in the assay on SK-MEL-2 melanoma and over 43 µM with T-47D breast.

Take `CN(C)N=Nc1ccc2[nH]c(=O)[nH]c2c1`: the TGI in the assay on 786-0 renal, with HT29 colon, with LOX IMVI melanoma, in the assay with M14 melanoma, with NCI/ADR-RES ovarian and in the assay on OVCAR-4 ovarian was over 100 µM each time. The TGI in the assay on RXF 393 renal, in the assay with SF-539 CNS, with SK-MEL-2 melanoma and in the assay with T-47D breast was over 100 µM throughout.

`C[n+]1cn(-c2nc3ccccc3nc2[N-]S(=O)(=O)c2ccccc2)c2ccccc21`: the TGI in the assay with 786-0 renal, with HT29 colon, in the assay with LOX IMVI melanoma, with M14 melanoma, in the assay with NCI/ADR-RES ovarian and in the assay with OVCAR-4 ovarian was over 100 µM in each case. Moreover, the TGI in the assay with RXF 393 renal, in the assay with SF-539 CNS, with SK-MEL-2 melanoma and in the assay with T-47D breast was over 100 µM throughout.

Regarding `Nc1c2cc3ccc2nc2ccc(cc12)OCCOCCOCCOCCOCCOCCO3`, the TGI in the assay with 786-0 renal, in the assay with HT29 colon, in the assay on LOX IMVI melanoma, with M14 melanoma, with NCI/ADR-RES ovarian and in the assay with OVCAR-4 ovarian was over 10 µM each time. In addition, the TGI in the assay on RXF 393 renal, with SF-539 CNS, with SK-MEL-2 melanoma and with T-47D breast was over 10 µM each time.

Turning to `CCNC(=S)NNC(=O)CSc1nc2ccc(I)cc2c(=O)n1Cc1ccccc1`, the TGI in the assay on 786-0 renal is over 100 µM; with HT29 colon, over 100 µM; in the assay on LOX IMVI melanoma, over 100 µM; in the assay with M14 melanoma, over 100 µM; with NCI/ADR-RES ovarian, over 100 µM; in the assay on OVCAR-4 ovarian, over 95.5 µM. Further, the TGI with RXF 393 renal was over 81 µM; with SF-539 CNS, over 100 µM; in the assay on SK-MEL-2 melanoma it was over 94.9 µM; with T-47D breast it was over 100 µM.

Regarding `CC(=O)n1nc(-c2ccc3ccccc3c2)nc1C`, the TGI in the assay on 786-0 renal, with HT29 colon, with LOX IMVI melanoma, in the assay with M14 melanoma, with NCI/ADR-RES ovarian and in the assay with OVCAR-4 ovarian was over 100 µM in each case. Also, the TGI in the assay on RXF 393 renal, in the assay on SF-539 CNS, with SK-MEL-2 melanoma and in the assay with T-47D breast was over 100 µM throughout.

On to `COc1ccc(/C=C/C(=O)Oc2ccccc2OC)cc1`, for which the TGI in the assay on 786-0 renal was over 67 µM; in the assay on HT29 colon, over 59 µM; with LOX IMVI melanoma it was over 70.7 µM; in the assay on M14 melanoma, over 100 µM; in the assay on NCI/ADR-RES ovarian it was over 68.3 µM; in the assay on OVCAR-4 ovarian it was over 60.7 µM. Further, the TGI with RXF 393 renal was 99.8 µM; with SF-539 CNS, over 100 µM; with SK-MEL-2 melanoma, over 95.3 µM; in the assay on T-47D breast it was over 92.2 µM.

`CCOc1cc(-c2nc3cc(F)ccc3s2)ccc1O`: the TGI in the assay on 786-0 renal came to 29.6 µM; in the assay on HT29 colon, 34.8 µM; with LOX IMVI melanoma it was 33.4 µM; in the assay on M14 melanoma, 33.4 µM; in the assay with NCI/ADR-RES ovarian it was 50.2 µM; with OVCAR-4 ovarian, 43.2 µM. Further, the TGI with RXF 393 renal was determined as 35.4 µM; in the assay on SF-539 CNS, 34.2 µM; with SK-MEL-2 melanoma it was 31.5 µM; in the assay with T-47D breast, 28.1 µM.
